Molecules are shown by their SMILES.

The nature of the data set: RP, Thermo Scientific Acclaim RSLC 120 C18, 100 × 2.1 mm, 2.2 µm, 30 °C, 0.2 mL/min, estimated dead time 1.1 min; A: 90% water + 10% methanol + 0.01% formic acid + 5 mM ammonium formate, pH 3.61; B: methanol + 0.01% formic acid + 5 mM ammonium formate, pH 3.61; gradient (min/%B) 0/1 1/1 2/39 13/99.9 15/99.9 15.1/1 20.1/1. Particulars: stereoisomer not certain.
Turning to `CC#Cc1cc(C)nc(Nc2ccccc2)n1` [Mepanipyrim], the LC retention time is 10.2 min.

Regarding `CNC(C)C(=O)c1ccc(C)cc1` (stereo not drawn) [Mephedrone], the LC retention time was 4.49 min.

For `Cc1cc2c(OCC(O)CNC(C)C)cccc2[nH]1` (stereo not drawn) [Mepindolol], the LC retention time is 4.44 min.

For `Cc1cccc(C)c1NC(=O)C1CCCCN1C` (stereo not drawn) [Mepivacaine], the LC retention time was 4.66 min.

As for `CCCC(C)(COC(N)=O)COC(N)=O` [Meprobamate], the LC retention time is 5.94 min.

On to `Cc1ccccc1C(=O)Nc1cccc(OC(C)C)c1` [Mepronil], for which the LC retention time is 9.62 min.

Turning to `CCC1(c2cccc(O)c2)CCCCN(C)C1` (stereo not drawn) [Meptazinol], the LC retention time was 4.74 min.

As for `c1ccc2c(c1)Sc1ccccc1N2CC1CN2CCC1CC2` (stereo not drawn) [Mequitazine], the LC retention time was 8.29 min.

Regarding `S=C1N=CN=C2N=CN=C12` [Mercaptopurine (6-)], the LC retention time was 2.61 min.

On to `CC(O)C1C(=O)N2C(C(=O)O)=C(SC3CNC(C(=O)N(C)C)C3)C(C)C12` (stereo not drawn) [Meropenem], for which the LC retention time is 10.6 min.

Consider `COc1cc(CCN)cc(OC)c1OC` [Mescaline], for which the LC retention time was 3.88 min.

Regarding `CC(Cc1ccccc1)N1C=C(NC(=O)N=C2C=CC(=O)C=C2)ON1` (stereo not drawn) [Mesocarb-P-Hydroxy], the LC retention time is 7.24 min.

Regarding `CN1CCCCC1CCN1c2ccccc2Sc2ccc(S(C)=O)cc21` (stereo not drawn) [Mesoridazine], the LC retention time is 6.74 min.

Turning to `COCC1CN=C(c2ccccc2Cl)c2cc(Br)ccc2N1C` (stereo not drawn) [Metaclazepam], the LC retention time was 11.6 min.

On to `N#Cc1ccc(CC(=NNC(=O)Nc2ccc(OC(F)(F)F)cc2)c2cccc(C(F)(F)F)c2)cc1` [Metaflumizone], for which the LC retention time is 12.1 min.

For the molecule `COCC(=O)N(c1c(C)cccc1C)C(C)C(=O)OC` (stereo not drawn) [Metalaxyl], the LC retention time was 8.22 min.

For the molecule `Cc1nnc(-c2ccccc2)c(=O)[nH]1` [Metamitron-desamino], the LC retention time is 5.29 min.

On to `Cc1nnc(-c2ccccc2)c(=O)n1N` [Metamitron], for which the LC retention time is 5.24 min.

For the molecule `Cc1cc(C)cc(OCC2CNC(=O)O2)c1` (stereo not drawn) [Metaxalone], the LC retention time is 7.86 min.

With `Cc1cccc(C(=O)O)c1N(Cn1cccn1)C(=O)C(=O)O` [Metazachlor BH479-12], the LC retention time was 4.42 min.

Take `Cc1cccc(C)c1N(Cn1cccn1)C(=O)CS(=O)CC(=O)O` (stereo not drawn) [Metazachlor BH 479-9]: the LC retention time is 4.94 min.

In the case of `Cc1cccc(C)c1N(Cn1cccn1)C(=O)CS(C)=O` (stereo not drawn) [Metazachlor BH 479-11], the LC retention time was 5.54 min.

As for `Cc1cccc(C)c1N(Cn1cccn1)C(=O)C(=O)O` [Metazachlor OA], the LC retention time is 5.09 min.

In the case of `Cc1cccc(C)c1N(Cn1cccn1)C(=O)CCl` [Metazachlor], the LC retention time was 8.11 min.

`CC1(C)CCC(Cc2ccc(Cl)cc2)C1(O)Cn1cncn1` (stereo not drawn) [Metconazole]: the LC retention time was 11.2 min.

Regarding `CC(=O)OC1CCC2C3CCC4CC(=O)C=C(C)C4(C)C3CCC12C` (stereo not drawn) [Metenolone acetate], the LC retention time was 12.5 min.

Consider `CN(C)C(=N)N=C(N)N` [Metformin], for which the LC retention time was 1.39 min.

For the molecule `CNC(=O)N(C)c1nc2ccccc2s1` [Methabenzthiazuron], the LC retention time was 8.26 min.

In the case of `C=C(C)C(N)=O` [Methacrylamide], the LC retention time was 2.81 min.

Consider `CCC(=O)C(CCN(C)C)(c1ccccc1)c1ccccc1` [Methadone-Nor], for which the LC retention time was 7.68 min.

Regarding `CCC(=O)C(CC(C)N(C)C)(c1ccccc1)c1ccccc1` (stereo not drawn) [Methadone], the LC retention time was 8.04 min.

For the molecule `CN(C)CCN(Cc1cccs1)c1ccccc1` [Methaphenilene], the LC retention time is 6.32 min.

Take `Cc1ccccc1-n1c(C)nc2ccccc2c1=O` [Methaqualone]: the LC retention time is 7.83 min.

For `CC(=O)N=c1sc(S(N)(=O)=O)nn1C` [Methazolamide], the LC retention time was 4.28 min.

Take `CNC(C)C(=O)c1cccc(F)c1` (stereo not drawn) [Methcathinone (3-F-)]: the LC retention time was 3.94 min.

In the case of `CNC(C)C(=O)c1ccc(F)cc1` (stereo not drawn) [Methcathinone (4-F-/ 4-FMC. Flephedrone)], the LC retention time was 3.91 min.

Turning to `CNC(C)C(=O)c1ccccc1` (stereo not drawn) [Methcathinone], the LC retention time is 3.68 min.

For `CNC(C)C(=O)c1ccc(OC)cc1` (stereo not drawn) [Methedrone], the LC retention time is 4.16 min.

Turning to `Cc1oc(C)c(C(=O)Nc2ccccc2)c1C` [Methfuroxam], the LC retention time was 8.79 min.

`COc1nn(CSP(=S)(OC)OC)c(=O)s1` [Methidathion]: the LC retention time was 8.7 min.

For the molecule `Cn1cc[nH]c1=S` [Methimazole], the LC retention time was 2.61 min.

As to `CNC(=O)Oc1cc(C)c(SC)c(C)c1` [Methiocarb (Mercaptodimethur)], the LC retention time was 9.34 min.

Regarding `CNC(=O)Oc1cc(C)c(S(C)(=O)=O)c(C)c1` [Methiocarb-sulfone], the LC retention time was 5.28 min.

Regarding `Cc1cc(O)cc(C)c1S(C)=O` (stereo not drawn) [Methiocarb-sulfoxide phenol], the LC retention time was 4.63 min.

Regarding `CNC(=O)Oc1cc(C)c(S(C)=O)c(C)c1` (stereo not drawn) [Methiocarb-sulfoxide], the LC retention time is 4.86 min.

Turning to `CNC(C)Cc1cccs1` (stereo not drawn) [Methiopropamine], the LC retention time is 3.69 min.

Consider `COc1ccccc1OCC(O)COC(N)=O` (stereo not drawn) [Methocarbamol], for which the LC retention time is 5.21 min.

Regarding `C=CCC1(C(C)C#CCC)C(=O)NC(=O)N(C)C1=O` (stereo not drawn) [Methohexital], the LC retention time was 9.09 min.

Consider `CNC(=O)ON=C(C)SC` [Methomyl], for which the LC retention time was 4.16 min.

Consider `COC(C)(C)CCCC(C)CC=CC(C)=CC(=O)OC(C)C` (stereo not drawn) [Methoprene], for which the LC retention time was 13.6 min.

On to `COCCCNc1nc(NC(C)C)nc(SC)n1` [Methoprotryne], for which the LC retention time is 9.14 min.

For `CN(Cc1cnc2nc(N)nc(N)c2n1)c1ccc(C(=O)NC(CCC(=O)O)C(=O)O)cc1` (stereo not drawn) [Methotrexate], the LC retention time was 3.96 min.

On to `CCNC1(c2cccc(OC)c2)CCCCC1=O` (stereo not drawn) [Methoxetamine], for which the LC retention time is 4.93 min.

Consider `COc1cccc(C(=O)NN(C(=O)c2cc(C)cc(C)c2)C(C)(C)C)c1C` [Methoxyfenozide], for which the LC retention time is 9.56 min.

Regarding `CNC(C)Cc1ccccc1OC` (stereo not drawn) [Methoxyphenamine], the LC retention time is 4.69 min.

For the molecule `CN1C(=O)CC(C)(c2ccccc2)C1=O` (stereo not drawn) [Methsuximide], the LC retention time was 6.71 min.

In the case of `CNc1c(C)n(C)n(-c2ccccc2)c1=O` [Methylaminophenazone (4-)], the LC retention time was 4.74 min.

For the molecule `CC(C(O)c1ccccc1)N(C)C` (stereo not drawn) [Methylephedrine], the LC retention time is 3.73 min.

As for `CNC(C)C(=O)c1ccc2c(c1)OCO2` (stereo not drawn) [Methylone (MDMC)], the LC retention time is 3.81 min.

Regarding `COC(=O)c1ccc(O)cc1` [Methylparaben], the LC retention time is 6 min.

In the case of `COC(=O)C(c1ccccc1)C1CCCCN1` (stereo not drawn) [Methylphenidate], the LC retention time was 4.96 min.

With `CC(=O)Oc1c(C)cc(OCC(O)CNC(C)C)c(C)c1C` (stereo not drawn) [Metipranolol], the LC retention time was 6.28 min.

As to `CN1CCCC(CC2c3ccccc3Sc3ccccc32)C1` (stereo not drawn) [Metixene], the LC retention time is 8.51 min.

Turning to `CCc1cc2c(s1)-n1cnnc1CN=C2c1ccccc1Cl` [Metizolam (Desmethyletizolam)], the LC retention time is 7.93 min.

`CON(C)C(=O)Nc1ccc(Br)cc1` [Metobromuron]: the LC retention time is 8.15 min.

For the molecule `CCN(CC)CCNC(=O)c1cc(Cl)c(N)cc1OC` [Metoclopramide], the LC retention time is 4.36 min.

As to `CCc1cccc(C)c1N(C(=O)CS(=O)(=O)O)C(C)COC` (stereo not drawn) [Metolachlor-ESA], the LC retention time is 7.34 min.

Consider `CCc1cccc(C)c1N1C(=O)COCC1C` (stereo not drawn) [Metolachlor-morpholinon], for which the LC retention time is 7.89 min.

On to `CCc1cccc(C)c1N(C(=O)CCl)C(C)COC` (stereo not drawn) [Metolachlor], for which the LC retention time is 10.3 min.

As to `Cc1ccccc1N1C(=O)c2cc(S(N)(=O)=O)c(Cl)cc2NC1C` (stereo not drawn) [Metolazone], the LC retention time is 6.08 min.

Turning to `CNC(=O)Oc1cccc(C)c1` [Metolcarb], the LC retention time was 6.59 min.

For `COc1cc(OC)n2nc(S(=O)(=O)Nc3c(Cl)ccc(C)c3Cl)nc2n1` [Metosulam], the LC retention time was 7.1 min.

For the molecule `COc1ccc(NC(=O)N(C)C)cc1Cl` [Metoxuron], the LC retention time was 6.17 min.

For the molecule `COc1cc(C)c(C(=O)c2c(OC)ccc(Br)c2C)c(OC)c1OC` [Metrafenone], the LC retention time was 11.4 min.

For the molecule `CSc1nnc(C(C)(C)C)c(=O)[nH]1` [Metribuzin-Desamino (DA)], the LC retention time was 7.46 min.

As to `CC(C)(C)c1n[nH]c(=O)n(N)c1=O` [Metribuzin-Diketo (DK)], the LC retention time was 5.89 min.

Turning to `CSc1nnc(C(C)(C)C)c(=O)n1N` [Metribuzin], the LC retention time is 7.07 min.

With `Cc1nc([N+](=O)[O-])cn1CCO` [Metronidazole], the LC retention time is 3.58 min.

Take `COC(=O)c1ccccc1S(=O)(=O)NC(=O)Nc1nc(C)nc(OC)n1` [Metsulfuron-methyl]: the LC retention time was 6.31 min.

Turning to `CC(C)(C(=O)c1cccnc1)c1cccnc1` [Metyrapone], the LC retention time is 6.21 min.

For `CNC(=O)Oc1cc(C)c(N(C)C)c(C)c1` [Mexacarbate], the LC retention time was 9.3 min.

`Cc1cccc(C)c1OCC(C)N` (stereo not drawn) [Mexiletine]: the LC retention time is 5.59 min.

On to `C[N+]1([O-])CCN2c3ccccc3Cc3ccccc3C2C1` (stereo not drawn) [Mianserine-N-oxide], for which the LC retention time is 7.63 min.

These data come from the RepoRT retention time repository (doi:10.1021/acs.analchem.2c02893).
